What was measured:
[1] = molecular target: T1, alkyl hydroperoxide reductase C (Escherichia coli, UniProt P0AE08); experiment: Differential PTD-HDX-MS in 60° C.-depleted E. coli cell lysate; assay type: binding; conditions: 60° C.-PTD sample
T1 construct: endogenous in cells; host or cells: E. coli cell lysate
Protocol: (§1) Samples were prepared in triplicate.
(§2) The flowrate was controlled at 150 μL/min.
(§3) The decoy database was automatically generated in MSGF+ software.

[2] = molecular target: T2, 60 kDa chaperonin (Escherichia coli, UniProt P0A6F5); experiment: as above; assay type: binding; conditions: 60° C.-PTD sample
T2 construct: endogenous in cells; host or cells: E. coli cell lysate
Protocol: as §1, §2, §3

T1 sequence (P0AE08 2-187): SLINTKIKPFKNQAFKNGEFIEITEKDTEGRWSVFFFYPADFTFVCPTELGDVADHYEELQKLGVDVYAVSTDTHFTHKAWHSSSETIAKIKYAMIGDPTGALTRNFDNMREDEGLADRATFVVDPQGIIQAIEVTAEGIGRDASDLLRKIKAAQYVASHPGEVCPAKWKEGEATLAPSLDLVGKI
T2 sequence (P0A6F5 2-548): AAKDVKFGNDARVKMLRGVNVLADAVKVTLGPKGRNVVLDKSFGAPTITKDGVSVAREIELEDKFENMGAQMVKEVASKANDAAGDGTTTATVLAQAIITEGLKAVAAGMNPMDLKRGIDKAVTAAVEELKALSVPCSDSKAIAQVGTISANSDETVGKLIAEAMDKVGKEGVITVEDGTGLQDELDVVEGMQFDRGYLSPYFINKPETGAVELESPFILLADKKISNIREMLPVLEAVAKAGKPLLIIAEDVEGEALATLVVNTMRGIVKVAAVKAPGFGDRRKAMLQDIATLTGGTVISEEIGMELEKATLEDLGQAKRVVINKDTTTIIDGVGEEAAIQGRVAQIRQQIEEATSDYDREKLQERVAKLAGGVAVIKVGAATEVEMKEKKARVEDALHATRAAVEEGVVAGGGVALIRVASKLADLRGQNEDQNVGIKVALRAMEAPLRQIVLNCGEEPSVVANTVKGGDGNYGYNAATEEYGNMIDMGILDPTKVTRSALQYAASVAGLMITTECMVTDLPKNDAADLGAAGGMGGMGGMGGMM

Structure (SMILES): CC(=O)Nc1nnc(S(N)(=O)=O)s1 [AZM, Acetazolamide]
- deuterium uptake difference of characterized peptides following AZM treatment [1]: no significant differences
- deuterium uptake difference of characterized peptides following AZM treatment [2]: no significant differences

Source: patent US20260219279A1, “IMPROVED HIGH-THROUGHPUT HYDROGEN-DEUTERIUM EXCHANGE-MASS SPECTROMETRY SYSTEM AND METHOD” (THE BOARD OF REGENTS OF THE UNIVERSITY OF OKLAHOMA, priority 2023, published 2026)
